The values below come from patent US8722849B2, “Polypeptides” (Novo Nordisk A/S, priority 2011, dated 2014).

Data set [1] is described as follows: Assay (IV) determination of solubility. The format is physicochemical. Put shortly: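 Polypeptide in water (~500 nmol/ml) mixed 1:1 with 100 mM glycylglycine (pH 3.0–5.0) or bistrispropane (pH 6.0–8.0) buffers. Held 18 hours at room temperature, then centrifuged. Polypeptide remaining in solution quantified by HPLC.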
The nature of data set [2]: Assay (III) ThT fibrillation assay for physical stability. In kind it is physicochemical. To be noted: ThT fibrillation assay. Put shortly: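 Freshly prepared formulations, pH-adjusted, with 1 μM ThT; four or eight replicates incubated at 37 °C under 960 rpm orbital shaking. Fluorescence (ex 444/em 485 nm) read every 20 min; […]. Peptide concentration measured by RP-HPLC before and after the run.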

The target in data set [3] is T1, human amylin receptor (amylin 3(a) receptor: human calcitonin receptor + RAMP-3) (Homo sapiens, UniProt O60896+P30988).
T1 construct: expressed in transfected cells; host or cells: BHK570
T1 sequence (P30988 25-474): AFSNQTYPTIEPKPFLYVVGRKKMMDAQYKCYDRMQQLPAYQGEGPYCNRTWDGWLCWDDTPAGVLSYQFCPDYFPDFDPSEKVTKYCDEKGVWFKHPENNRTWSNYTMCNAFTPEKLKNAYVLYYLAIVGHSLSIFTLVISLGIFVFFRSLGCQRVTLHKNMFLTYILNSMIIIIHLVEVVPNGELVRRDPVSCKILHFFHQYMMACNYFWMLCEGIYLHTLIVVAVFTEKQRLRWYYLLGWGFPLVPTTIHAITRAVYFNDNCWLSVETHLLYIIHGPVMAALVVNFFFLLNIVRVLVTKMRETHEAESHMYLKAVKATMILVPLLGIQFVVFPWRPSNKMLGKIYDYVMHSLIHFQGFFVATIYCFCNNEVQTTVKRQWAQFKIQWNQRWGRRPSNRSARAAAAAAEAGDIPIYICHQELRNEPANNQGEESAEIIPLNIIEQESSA
T1 sequence (O60896 24-148 partner): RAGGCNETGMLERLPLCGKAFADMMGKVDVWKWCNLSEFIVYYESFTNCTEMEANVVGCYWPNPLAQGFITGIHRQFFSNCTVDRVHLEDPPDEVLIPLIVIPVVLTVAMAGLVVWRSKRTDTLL
The data set is described as follows: Assay (II)a functional CRE-luciferase assay, human amylin receptor. In kind it is cell-based. The note with it: Table 2; BHK amylin 3(a)-receptor/CRE-luc cells.

The target in data set [4] is T2, human calcitonin receptor (Homo sapiens, UniProt P30988).
T2 construct: expressed in transfected cells; host or cells: BHK570
T2 sequence (P30988 25-474): T1 sequence (P30988 25-474)
As to the kind of experiment: Assay (II)a functional CRE-luciferase assay, human calcitonin receptor. The format is cell-based. The note with it: Table 7; human calcitonin (CTa) receptor.

Values after ≈ are worked out from the molar mass of the structure shown. Where two headings read alike, the source gives them in different places. Starred links: 1 amine or outer side, 2 acyl side, 3 side chain; linkers in the order of their positions; H or OH if unused. Positions of bridges follow the written chain, without caps; N, C: chain ends. Residues, ends and D or L forms follow the SMILES beside them. *: point of attachment. C18 diacid = O=C(O)CCCCCCCCCCCCCCCCC(=O)*; γGlu = O=C(O)[C@H](CCC(=O)[*:2])N[*:1]

As a reminder, the solubility is the concentration that dissolves in the medium under given conditions. A word on the EC50: it is the concentration at which the effect is half-maximal.

Regarding `CC[C@H](C)[C@H](NC(=O)[C@@H]1CCCN1C(=O)CNC(=O)[C@H](Cc1ccccc1)NC(=O)[C@H](CC(N)=O)NC(=O)[C@H](CC(N)=O)NC(=O)[C@H](CO)NC(=O)[C@H](CO)NC(=O)[C@H](Cc1c[nH]cn1)NC(=O)[C@H](Cc1c[nH]cn1)NC(=O)[C@H](CC(C)C)NC(=O)[C@H](Cc1ccccc1)NC(=O)[C@H](CCC(=O)O)NC(=O)[C@H](C)NC(=O)[C@H](CC(C)C)NC(=O)[C@H](CCCNC(=N)N)NC(=O)[C@H](CCC(N)=O)NC(=O)[C@@H](NC(=O)[C@H](C)NC(=O)[C@@H]1CSSC[C@H](NC(=O)[C@H](Cc2c[nH]cn2)NC(=O)[C@H](Cc2c[nH]cn2)NC(=O)[C@H](Cc2c[nH]cn2)NC(=O)CC[C@H](NC(=O)CCCCCCCCCCCCCCCCC(=O)O)C(=O)O)C(=O)N[C@@H](CC(N)=O)C(=O)N[C@@H]([C@@H](C)O)C(=O)N[C@@H](C)C(=O)N[C@@H]([C@@H](C)O)C(=O)N1)[C@@H](C)O)C(=O)N[C@@H](CC(C)C)C(=O)N1CCC[C@H]1C(=O)N1CCC[C@H]1C(=O)N[C@H](C(=O)N[C@@H](CC(N)=O)C(=O)N[C@H](C(=O)NCC(=O)N[C@@H](CO)C(=O)N[C@@H](CC(N)=O)C(=O)N[C@H](C(=O)N[C@@H](Cc1ccc(O)cc1)C(N)=O)[C@@H](C)O)C(C)C)[C@@H](C)O` [Example 45, N-alpha-[(S)-4-Carboxy-4-(17-carboxyheptadecanoylamino)butyryl]-His-His-[His1,Glu14,His17]-pramlintide] ({C18 diacid-γGlu}-HHHCNTATCATQRLAEFLHHSSNNFGPILPPTNVGSNTY-NH2; disulfide 4-9 (inferred); C-terminus assumed), the solubility at 18 h in data set [1] (bistrispropane buffer, pH 6, pH 6.0, read-out: Solubility pH 6.0) was 188 µM (≈ 886 µg/mL); in data set [1] (bistrispropane buffer, pH 6.5, pH 6.5, read-out: Solubility pH 6.5), 48 µM (≈ 226 µg/mL); in data set [1] (bistrispropane buffer, pH 7, pH 7.0, read-out: Solubility pH 7.0), 42 µM (≈ 198 µg/mL); in data set [1] (bistrispropane buffer, pH 7.5, pH 7.5, read-out: Solubility pH 7.5), 134 µM (≈ 631 µg/mL); in data set [1] (bistrispropane buffer, pH 8, pH 8.0, read-out: Solubility pH 8.0), greater than 200 µM; in data set [1] (glycylglycine buffer, pH 3, pH 3.0, read-out: Solubility pH 3.0), greater than 200 µM. Besides, the solubility at 18 h in data set [1] (glycylglycine buffer, pH 4, pH 4.0, 18 hours at room temperature, Table 2, read-out: Solubility pH 4.0) is greater than 200 µM; in data set [1] (glycylglycine buffer, pH 4, pH 4.0, read-out: Solubility pH 4.0), greater than 200 µM; in data set [1] (glycylglycine buffer, pH 5, pH 5.0, read-out: Solubility pH 5.0) it was greater than 200 µM. The “ThT pH 4.0 lag time” value in data set [2] was 36.7 h. Also, the “ThT pH 4.0 lag time (h)” value in data set [2] is reported as 36.7 h. Moreover, the 50% effective concentration (EC50) in data set [3] was 0.0624 nM; in data set [4] it was 0.265 nM.
